Reference: ChEMBL document CHEMBL4507291 (2021)

How the values were obtained:
[1] = target: T1, 5-hydroxytryptamine receptor 1A (Homo sapiens) (UniProt P08908); conditions: Compound concentration 10.0 uM
T1 sequence (whole entry): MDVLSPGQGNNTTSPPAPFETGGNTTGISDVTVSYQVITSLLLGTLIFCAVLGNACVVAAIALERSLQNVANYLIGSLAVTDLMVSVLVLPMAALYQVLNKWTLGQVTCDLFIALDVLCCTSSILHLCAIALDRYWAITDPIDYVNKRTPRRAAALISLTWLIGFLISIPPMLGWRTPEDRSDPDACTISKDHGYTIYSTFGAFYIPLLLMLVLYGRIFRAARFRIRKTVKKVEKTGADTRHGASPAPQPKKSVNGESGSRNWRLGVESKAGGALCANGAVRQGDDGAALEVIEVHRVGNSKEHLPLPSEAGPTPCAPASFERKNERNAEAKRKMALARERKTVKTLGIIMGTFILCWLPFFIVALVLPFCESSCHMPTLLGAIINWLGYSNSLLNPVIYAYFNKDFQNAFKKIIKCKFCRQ

[2] = target: Mitogen-activated protein kinase kinase kinase 10 (Homo sapiens) (UniProt Q02779)
[3] = target: T2, cGMP-dependent protein kinase 2 (Homo sapiens) (UniProt Q13237)
T2 sequence (whole entry): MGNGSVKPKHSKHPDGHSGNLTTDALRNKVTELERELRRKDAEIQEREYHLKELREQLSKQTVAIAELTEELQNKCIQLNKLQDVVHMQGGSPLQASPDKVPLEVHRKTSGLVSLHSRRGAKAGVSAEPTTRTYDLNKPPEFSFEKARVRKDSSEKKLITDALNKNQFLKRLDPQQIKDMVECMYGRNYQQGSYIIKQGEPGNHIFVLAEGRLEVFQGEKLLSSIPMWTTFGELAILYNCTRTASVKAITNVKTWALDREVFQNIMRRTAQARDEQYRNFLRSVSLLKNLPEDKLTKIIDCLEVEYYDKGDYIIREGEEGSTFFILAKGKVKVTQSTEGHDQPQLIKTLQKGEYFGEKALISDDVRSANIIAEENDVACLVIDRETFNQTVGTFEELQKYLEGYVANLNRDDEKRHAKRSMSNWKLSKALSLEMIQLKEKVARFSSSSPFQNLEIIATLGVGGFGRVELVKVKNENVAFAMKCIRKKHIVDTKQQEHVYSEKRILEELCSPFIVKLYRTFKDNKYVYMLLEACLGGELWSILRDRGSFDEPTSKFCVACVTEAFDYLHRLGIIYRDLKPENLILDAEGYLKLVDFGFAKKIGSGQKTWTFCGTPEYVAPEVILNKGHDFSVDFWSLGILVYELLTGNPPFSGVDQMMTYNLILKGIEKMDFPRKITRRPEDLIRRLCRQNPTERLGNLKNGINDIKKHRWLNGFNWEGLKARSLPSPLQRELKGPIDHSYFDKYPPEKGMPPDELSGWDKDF

[4] = target: Serine/threonine-protein kinase 17B (Homo sapiens) (UniProt O94768)
[5] = target: T3, Tyrosine-protein kinase Mer (Homo sapiens) (UniProt Q12866)
T3 sequence (whole entry): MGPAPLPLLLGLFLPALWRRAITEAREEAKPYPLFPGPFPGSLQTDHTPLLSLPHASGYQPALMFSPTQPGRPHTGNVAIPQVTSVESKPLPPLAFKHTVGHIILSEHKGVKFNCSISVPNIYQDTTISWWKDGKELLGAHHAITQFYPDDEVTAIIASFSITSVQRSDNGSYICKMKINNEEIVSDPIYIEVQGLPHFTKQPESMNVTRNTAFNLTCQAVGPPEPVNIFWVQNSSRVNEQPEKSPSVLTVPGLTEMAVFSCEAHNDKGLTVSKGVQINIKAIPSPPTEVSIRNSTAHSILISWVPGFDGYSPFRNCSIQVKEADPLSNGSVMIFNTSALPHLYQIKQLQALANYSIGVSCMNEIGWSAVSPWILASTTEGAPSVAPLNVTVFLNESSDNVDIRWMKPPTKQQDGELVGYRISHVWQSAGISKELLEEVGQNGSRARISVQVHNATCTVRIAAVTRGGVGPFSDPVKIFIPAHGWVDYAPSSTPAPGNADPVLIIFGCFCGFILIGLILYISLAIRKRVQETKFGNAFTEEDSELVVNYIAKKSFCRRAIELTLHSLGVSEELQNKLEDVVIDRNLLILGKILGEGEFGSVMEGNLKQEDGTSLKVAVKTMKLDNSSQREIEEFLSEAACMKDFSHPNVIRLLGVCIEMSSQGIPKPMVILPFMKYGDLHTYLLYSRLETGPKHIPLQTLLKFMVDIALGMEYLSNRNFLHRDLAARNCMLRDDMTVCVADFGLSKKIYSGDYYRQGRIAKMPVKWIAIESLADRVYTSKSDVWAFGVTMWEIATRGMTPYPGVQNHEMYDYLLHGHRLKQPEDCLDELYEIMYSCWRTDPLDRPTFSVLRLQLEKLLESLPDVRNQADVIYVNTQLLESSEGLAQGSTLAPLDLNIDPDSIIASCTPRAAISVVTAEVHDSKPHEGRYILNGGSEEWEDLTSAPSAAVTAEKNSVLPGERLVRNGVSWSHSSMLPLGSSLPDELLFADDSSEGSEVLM

[6] = target: Serine/threonine-protein kinase ULK3 (Homo sapiens) (UniProt Q6PHR2)
[7] = target: Ephrin type-A receptor 5 (Homo sapiens) (UniProt P54756)
[8] = Compound concentration 1000.0 nM
[9] = Compound concentration 100.0 nM

Serine/threonine-protein kinase 17B (Homo sapiens), sequence (O94768 whole entry): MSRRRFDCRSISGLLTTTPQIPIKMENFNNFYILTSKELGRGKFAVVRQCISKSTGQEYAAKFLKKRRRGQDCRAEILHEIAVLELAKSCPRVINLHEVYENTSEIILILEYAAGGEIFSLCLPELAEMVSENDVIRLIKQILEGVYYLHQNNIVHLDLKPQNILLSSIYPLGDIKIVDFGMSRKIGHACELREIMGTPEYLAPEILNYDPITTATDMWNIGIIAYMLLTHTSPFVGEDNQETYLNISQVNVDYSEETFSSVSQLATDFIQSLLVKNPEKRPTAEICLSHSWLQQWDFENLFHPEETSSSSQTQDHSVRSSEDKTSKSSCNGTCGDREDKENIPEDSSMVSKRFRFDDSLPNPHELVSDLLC
Ephrin type-A receptor 5 (Homo sapiens), sequence (P54756 whole entry): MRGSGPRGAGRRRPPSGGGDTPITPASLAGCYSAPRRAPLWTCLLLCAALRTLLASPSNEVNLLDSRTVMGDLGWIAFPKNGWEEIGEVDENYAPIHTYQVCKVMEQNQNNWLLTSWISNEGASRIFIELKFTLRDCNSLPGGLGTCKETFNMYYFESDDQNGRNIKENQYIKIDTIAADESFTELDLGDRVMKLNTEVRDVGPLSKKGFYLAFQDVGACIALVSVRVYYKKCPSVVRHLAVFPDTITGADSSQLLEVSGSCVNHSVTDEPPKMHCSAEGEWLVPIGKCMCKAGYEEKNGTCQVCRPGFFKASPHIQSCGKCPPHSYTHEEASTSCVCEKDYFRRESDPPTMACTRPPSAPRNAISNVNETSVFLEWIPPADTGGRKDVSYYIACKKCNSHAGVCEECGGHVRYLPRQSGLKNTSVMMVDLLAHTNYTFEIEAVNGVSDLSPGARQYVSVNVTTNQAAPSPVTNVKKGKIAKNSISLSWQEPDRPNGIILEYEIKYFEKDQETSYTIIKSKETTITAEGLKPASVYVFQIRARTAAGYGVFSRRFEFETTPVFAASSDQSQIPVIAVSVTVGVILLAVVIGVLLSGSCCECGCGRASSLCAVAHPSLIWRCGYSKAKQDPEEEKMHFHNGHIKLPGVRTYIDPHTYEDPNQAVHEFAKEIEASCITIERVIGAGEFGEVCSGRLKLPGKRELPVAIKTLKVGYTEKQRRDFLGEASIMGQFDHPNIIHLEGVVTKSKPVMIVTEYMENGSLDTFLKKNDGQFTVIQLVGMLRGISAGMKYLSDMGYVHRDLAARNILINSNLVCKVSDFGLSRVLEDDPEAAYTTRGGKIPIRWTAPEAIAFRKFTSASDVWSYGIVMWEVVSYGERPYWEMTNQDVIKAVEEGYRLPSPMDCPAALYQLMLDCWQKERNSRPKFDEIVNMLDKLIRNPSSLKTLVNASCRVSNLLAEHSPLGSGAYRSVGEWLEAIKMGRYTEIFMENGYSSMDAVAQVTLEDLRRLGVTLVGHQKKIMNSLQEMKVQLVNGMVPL
Mitogen-activated protein kinase kinase kinase 10 (Homo sapiens), sequence (Q02779 whole entry, looked up): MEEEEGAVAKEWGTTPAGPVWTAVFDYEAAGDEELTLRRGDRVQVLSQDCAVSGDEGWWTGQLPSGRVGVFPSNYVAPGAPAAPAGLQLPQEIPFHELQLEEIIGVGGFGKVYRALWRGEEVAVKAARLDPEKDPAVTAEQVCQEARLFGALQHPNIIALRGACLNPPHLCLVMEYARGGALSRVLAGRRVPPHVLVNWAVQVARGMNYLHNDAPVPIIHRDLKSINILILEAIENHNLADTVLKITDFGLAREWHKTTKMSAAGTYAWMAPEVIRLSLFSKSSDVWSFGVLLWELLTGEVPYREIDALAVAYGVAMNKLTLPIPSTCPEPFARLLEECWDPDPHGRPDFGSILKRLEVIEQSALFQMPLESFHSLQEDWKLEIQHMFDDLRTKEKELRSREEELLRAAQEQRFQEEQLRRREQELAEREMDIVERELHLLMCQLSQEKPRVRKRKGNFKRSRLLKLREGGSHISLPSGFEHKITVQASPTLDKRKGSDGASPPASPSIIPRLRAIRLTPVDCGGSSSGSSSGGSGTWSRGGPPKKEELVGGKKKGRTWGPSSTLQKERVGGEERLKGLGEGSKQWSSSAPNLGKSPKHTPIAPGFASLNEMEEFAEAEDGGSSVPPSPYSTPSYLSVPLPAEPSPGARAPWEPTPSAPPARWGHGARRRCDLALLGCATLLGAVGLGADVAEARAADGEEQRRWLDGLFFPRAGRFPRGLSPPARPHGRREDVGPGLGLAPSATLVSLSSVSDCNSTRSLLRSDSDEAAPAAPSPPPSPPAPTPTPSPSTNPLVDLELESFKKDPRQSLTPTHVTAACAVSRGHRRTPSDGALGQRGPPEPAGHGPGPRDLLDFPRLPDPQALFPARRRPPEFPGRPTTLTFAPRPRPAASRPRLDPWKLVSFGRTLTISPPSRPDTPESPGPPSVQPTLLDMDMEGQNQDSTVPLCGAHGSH
Serine/threonine-protein kinase ULK3 (Homo sapiens), sequence (Q6PHR2 whole entry): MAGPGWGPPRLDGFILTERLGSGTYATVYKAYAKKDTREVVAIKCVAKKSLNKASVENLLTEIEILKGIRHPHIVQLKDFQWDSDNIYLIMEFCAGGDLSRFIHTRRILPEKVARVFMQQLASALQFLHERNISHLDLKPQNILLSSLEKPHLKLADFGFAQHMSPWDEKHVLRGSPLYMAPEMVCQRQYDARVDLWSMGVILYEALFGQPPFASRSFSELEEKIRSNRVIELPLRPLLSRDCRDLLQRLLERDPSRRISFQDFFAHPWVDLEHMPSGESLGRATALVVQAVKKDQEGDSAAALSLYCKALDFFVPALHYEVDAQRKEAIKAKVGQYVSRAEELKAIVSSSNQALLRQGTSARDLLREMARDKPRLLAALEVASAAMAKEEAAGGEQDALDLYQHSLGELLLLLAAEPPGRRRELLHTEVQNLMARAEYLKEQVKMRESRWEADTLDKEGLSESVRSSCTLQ

C[C@@H]1CN(c2cc(-c3nn(C)c4ccc(OC5(C)CC5)cc34)ncn2)C[C@H](C)O1 [MLi-2-NC]
inactive: inhibition [1] 18.1% | residual activity [2, 8] 100% | residual activity [3, 8] 85% | residual activity [4, 8] 100% | residual activity [5, 8] 83% | residual activity [6, 8] 67% | residual activity [7, 8] 100%

C[C@@H]1CN(c2cc(-c3n[nH]c4ccc(OC5(C)CC5)cc34)ncn2)C[C@H](C)O1 [MLi-2]
inactive: inhibition [1] 4.44% | residual activity [2, 9] 100% | residual activity [3, 9] 79% | residual activity [4, 9] 96% | residual activity [5, 9] 97% | residual activity [6, 9] 78% | residual activity [7, 9] 95%
